Among the data in patent US8877707B2, “Inhibitors of HCV NS5A” (Presidio Pharmaceuticals, Inc., priority 2010, dated 2014) are EC50 values, retold here.

The subject of the assay is HCV genotype 1b replicon in Huh 7 cells. Put plainly: HCV replicon assay (1b_Huh-Luc/Neo-ET cell line, luciferase readout). The assay is classed as cell-based. The settings on record: Hepatitis C virus, Huh-7; HCV 1b replicon; read-out: Inhibition of HCV genotype 1b. Put shortly:
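Replicon level was read as luciferase signal after 72 h compound exposure, triplicate wells, starting the day after cells were plated. Cell line: 1b_Huh-Luc/Neo-ET. Values normalised to control as percent, and EC50 fitted with a variable-slope sigmoid; determinations repeated.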
A general note: In antiviral work, replicon cells carry a viral genome segment that copies itself.
As to `COC(=O)N[C@H](C(=O)N1CCC[C@H]1C(=O)N[C@@H](C)c1ccc(-c2ccc3cc(-c4cnc([C@@H]5CCCN5C(=O)[C@@H](NC(=O)OC)C5CCOCC5)[nH]4)ccc3c2)cc1)C1CCOCC1` [compound 559], the EC50 is less than 1 nM.

For the compound `COC(=O)N[C@@H](C)C(=O)N1CCC[C@H]1C(=O)N[C@H](C)c1ccc(-c2ccc3cc(-c4cnc([C@@H]5CCCN5C(=O)[C@H](C)NC(=O)OC)[nH]4)ccc3c2)cc1` [compound 560], the EC50 was in the range of 10 to 999 nM.

Regarding `COC(=O)N[C@H](C(=O)N1CCC[C@H]1C(=O)N[C@H](C)c1ccc(-c2ccc3cc(-c4cnc([C@@H]5CCCN5C(=O)[C@@H](NC(=O)OC)C(C)C)[nH]4)ccc3c2)cc1)C(C)C` [compound 561], the EC50 was 10 to 999 nM.

With `COC(=O)N[C@H](C(=O)N1CCC[C@H]1C(=O)N[C@H](C)c1ccc(-c2ccc3cc(-c4cnc([C@@H]5CCCN5C(=O)[C@@H](NC(=O)OC)[C@@H](C)OC)[nH]4)ccc3c2)cc1)[C@@H](C)OC` [compound 562], the EC50 was 10 to 999 nM.

Regarding `COC(=O)N[C@H](C(=O)N1CCC[C@H]1C(=O)N[C@H](C)c1ccc(-c2ccc3cc(-c4cnc([C@@H]5CCCN5C(=O)[C@@H](NC(=O)OC)C5CCOCC5)[nH]4)ccc3c2)cc1)C1CCOCC1` [compound 563], the EC50 is 1 to 9.9 nM.

For the compound `COC(=O)N[C@@H](C)C(=O)N1CCC[C@H]1CNC(=O)c1ccc(-c2ccc3cc(-c4cnc([C@@H]5CCCN5C(=O)[C@H](C)NC(=O)OC)[nH]4)ccc3c2)cc1` [compound 564], the EC50 fell in the range of 10 to 999 nM.

Turning to `COC(=O)N[C@H](C(=O)N1CCC[C@H]1CNC(=O)c1ccc(-c2ccc3cc(-c4cnc([C@@H]5CCCN5C(=O)[C@@H](NC(=O)OC)C(C)C)[nH]4)ccc3c2)cc1)C(C)C` [compound 565], the EC50 is less than 1 nM.

With `COC(=O)N[C@@H](C)C(=O)N1CCC[C@H]1C(=O)NCc1ccc(-c2ccc3cc(-c4cnc([C@@H]5CCCN5C(=O)[C@H](C)NC(=O)OC)[nH]4)ccc3c2)cc1` [compound 566], the EC50 lay within 10 to 999 nM.

Consider `COC(=O)N[C@H](C(=O)N1CCC[C@H]1C(=O)NCc1ccc(-c2ccc3cc(-c4cnc([C@@H]5CCCN5C(=O)[C@@H](NC(=O)OC)C(C)C)[nH]4)ccc3c2)cc1)C(C)C` [compound 567], for which the EC50 lay within 10 to 999 nM.

As for `COC(=O)N[C@H](C(=O)N1CCC[C@H]1C(=O)NCc1ccc(-c2ccc3cc(-c4cnc([C@@H]5CCCN5C(=O)[C@@H](NC(=O)OC)[C@@H](C)OC)[nH]4)ccc3c2)cc1)[C@@H](C)OC` [compound 568], the EC50 lay in the range of 10 to 999 nM.

As for `COC(=O)N[C@H](C(=O)N1CCC[C@H]1C(=O)NCc1ccc(-c2ccc3cc(-c4cnc([C@@H]5CCCN5C(=O)[C@@H](NC(=O)OC)C5CCOCC5)[nH]4)ccc3c2)cc1)C1CCOCC1` [compound 569], the EC50 is less than 1 nM.

`COC(=O)N[C@@H](C)C(=O)N1CCC[C@H]1C(=O)Nc1ccc(-c2ccc3cc(-c4cnc([C@@H]5CCCN5C(=O)[C@H](C)NC(=O)OC)[nH]4)ccc3c2)cc1` [compound 570]: the EC50 was in the range of 1 to 9.9 nM.

As for `COC(=O)N[C@H](C(=O)N1CCC[C@H]1C(=O)Nc1ccc(-c2ccc3cc(-c4cnc([C@@H]5CCCN5C(=O)[C@@H](NC(=O)OC)C(C)C)[nH]4)ccc3c2)cc1)C(C)C` [compound 571], the EC50 was less than 1 nM.

With `COC(=O)N[C@H](C(=O)N1CCC[C@H]1CNC(=O)c1ccc(-c2ccc3cc(-c4cnc([C@@H]5CCCN5C(=O)[C@@H](NC(=O)OC)[C@@H](C)OC)[nH]4)ccc3c2)cc1)[C@@H](C)OC` [compound 572], the EC50 was less than 1 nM.

Turning to `COC(=O)N[C@H](C(=O)N1CCC[C@H]1CNC(=O)c1ccc(-c2ccc3cc(-c4cnc([C@@H]5CCCN5C(=O)[C@@H](NC(=O)OC)C5CCOCC5)[nH]4)ccc3c2)cc1)C1CCOCC1` [compound 573], the EC50 is less than 1 nM.

`COC(=O)N[C@H](C(=O)N1CCC[C@H]1CNC(=O)c1ccc2cc(-c3ccc(-c4cnc([C@@H]5CCCN5C(=O)[C@@H](NC(=O)OC)C(C)C)[nH]4)cc3)ccc2c1)C(C)C` [compound 574]: the EC50 is less than 1 nM.

Take `COC(=O)N[C@H](C(=O)N1CCC[C@H]1CNC(=O)c1ccc2cc(-c3ccc(-c4cnc([C@@H]5CCCN5C(=O)[C@@H](NC(=O)OC)[C@@H](C)OC)[nH]4)cc3)ccc2c1)[C@@H](C)OC` [compound 575]: the EC50 was less than 1 nM.

As for `COC(=O)N[C@@H](C(=O)N1CCC[C@H]1CNC(=O)c1ccc2cc(-c3ccc(-c4cnc([C@@H]5CCCN5C(=O)[C@H](NC(=O)OC)c5ccccc5)[nH]4)cc3)ccc2c1)c1ccccc1` [compound 577], the EC50 was less than 1 nM.

Consider `COC(=O)N[C@H](C(=O)N1CCC[C@H]1C(=O)Nc1ccc(-c2ccc3cc(-c4cnc([C@@H]5CCCN5C(=O)[C@@H](NC(=O)OC)[C@@H](C)OC)[nH]4)ccc3c2)cc1)[C@@H](C)OC` [compound 578], for which the EC50 was less than 1 nM.

For the compound `COC(=O)N[C@H](C(=O)N1CCC[C@H]1c1ncc(-c2ccc3cc(-c4cc5[nH]c([C@@H]6CCCN6C(=O)[C@@H](NC(=O)OC)C(C)C)nc5cc4F)ccc3c2)[nH]1)C(C)C` [compound 700], the EC50 is less than 1 nM.

For `COC(=O)N[C@H](C(=O)N1CCC[C@H]1c1ncc(-c2ccc3cc(-c4cc5[nH]c([C@@H]6CCCN6C(=O)[C@@H](NC(=O)OC)[C@@H](C)OC)nc5cc4F)ccc3c2)[nH]1)[C@@H](C)OC` [compound 701], the EC50 is less than 1 nM.

For `COC(=O)N[C@H](C(=O)N1CCC[C@H]1c1ncc(-c2ccc3cc(-c4cc5[nH]c([C@@H]6CCCN6C(=O)[C@@H](NC(=O)OC)C6CCOCC6)nc5cc4F)ccc3c2)[nH]1)C1CCOCC1` [compound 702], the EC50 was less than 1 nM.

Consider `CC[C@H](C)[C@H](NC(=O)OC)C(=O)N1CCC[C@H]1c1ncc(-c2ccc3cc(-c4cc5[nH]c([C@@H]6CCCN6C(=O)[C@@H](NC(=O)OC)[C@@H](C)CC)nc5cc4F)ccc3c2)[nH]1` [compound 703], for which the EC50 was less than 1 nM.
